# From patent US20200339625A1, “NOVEL RADIOMETAL-BINDING COMPOUNDS FOR DIAGNOSIS OR TREATMENT OF PROSTATE SPECIFIC MEMBRANE ANTIGEN-EXPRESSING CANCER” (PROVINCIAL HEALTH SERVICES AUTHORITY, priority 2017, published 2020)
# Experiments:
# [1] = tested on: mice bearing PSMA-expressing LNCAP cancer xenografts; assay: Biodistribution of 68Ga-labeled compounds; type: in vivo; conditions: 1 h post-injection
# Method: (§1) Imaging and biodistribution experiments were performed using NODSCID 1L2RyKO male mice. Mice were anesthetized by inhalation with 2% isoflurane in oxygen, and implanted subcutaneously with 1×10^7 LNCaP cells behind left shoulder. Mice were imaged or used in biodistribution studies when the tumor grew up to reach 5-8 mm in diameter during 5-6 weeks.
# For biodistribution studies, the mice were injected with the radiotracer as described above. At predetermined time points (1 or 3 h), the mice was anesthetized with 2% isoflurane inhalation, and euthanized by CO2 inhalation. Blood was withdrawn immediately from the heart, and the organs/tissues of interest were collected. The collected organs/tissues were weighed and counted using an automatic gamma counter. The uptake in each organ/tissue was normalized to the injected dose using a standard curve, and expressed as the percentage of the injected dose per gram of tissue (% ID/g).
# [2] = tested on: mice bearing LNCaP tumor xenografts; assay: PET/CT imaging of 68Ga-labeled compounds; type: in vivo; conditions: PET/CT images; for tumor uptake (qualitative comparison): compounds of FIG. 13
# Method: 2.17 PET/CT Imaging and Biodistribution
# as §1
# PET imaging experiments were conducted using Siemens Inveon micro PET/CT scanner. Each tumor bearing mouse was injected 6-8 MBq of 68Ga-labeled tracer through the tail vein under anesthesia (2% isoflurane in oxygen). The mice were allowed to recover and roam freely in their cage. After 50 min, the mice were sedated again with 2% isoflurane in oxygen inhalation and positioned in the scanner. A 10-min CT scan was conducted first for localization and attenuation correction after segmentation for reconstructing the PET images. Then, a 10-min static PET imaging was performed to determined uptake in tumor and other organs. The mice were kept warm by a heating pad during acquisition. For imaging studies acquired at 3 h post-injection (p.i.), the mice were placed in the micro PET/CT scanner at 170 min p.i. Then, the CT acquisitions were conducted as described above, a 15-min static PET imaging was performed to determined uptake in tumor and other organs.
Adrenal glands uptake [1] [% ID/g],Blood uptake [1] [% ID/g],Bone uptake [1] [% ID/g],Brain uptake [1] [% ID/g],Fat uptake [1] [% ID/g],Heart uptake [1] [% ID/g],Intestine uptake [1] [% ID/g],Kidneys uptake [1] [% ID/g],Lacrimal uptake [1] [% ID/g],Liver uptake [1] [% ID/g],Lungs uptake [1] [% ID/g],Muscle uptake [1] [% ID/g],Pancreas uptake [1] [% ID/g],Salivary uptake [1] [% ID/g],Seminal uptake [1] [% ID/g],Spleen uptake [1] [% ID/g],Stomach uptake [1] [% ID/g],Tail uptake [1] [% ID/g],Testes uptake [1] [% ID/g],Thyroid uptake [1] [% ID/g],Compound,also measured
3.55 ± 2.33,1.56 ± 0.57,0.70 ± 0.33,0.06 ± 0.03,1.03 ± 0.67,0.56 ± 0.24,0.44 ± 0.12,85.6 ± 73.5,1.00 ± 0.56,0.46 ± 0.10,1.66 ± 0.67,0.48 ± 0.37,0.57 ± 0.20,1.86 ± 0.91,10.6 ± 10.9,3.36 ± 2.54,0.17 ± 0.10,0.98 ± 0.38,0.56 ± 0.18,0.76 ± 0.33,O=C([O-])CN1CCN(CC(=O)[O-])CCN(CC(=O)NCC2CCC(C(=O)NC(Cc3ccc4cc5ccccc5cc4c3)C(=O)NCCCCC(NC(=O)NC(CCC(=O)O)C(=O)O)C(=O)O)CC2)CCN(CC(=O)[O-])CC1.[68Ga+3] (stereo not drawn) [^68Ga-HTK03027],Tumor uptake [1]: 13.3 ± 5.44 % ID/g; Tumor:Blood ratio [1]: 8.57 ± 2.83; Tumor:Muscle ratio [1]: 35.0 ± 18.7; Tumor:kidney ratio [1]: 0.27 ± 0.20; Urine uptake [1]: 844 ± 645 % ID/g; excretion pathway [2]: excreted mainly via the renal pathway; tumor uptake (qualitative comparison) [2]: comparable
4.91 ± 1.57,3.93 ± 0.91,0.92 ± 0.14,0.09 ± 0.02,1.57 ± 0.42,1.25 ± 0.27,0.77 ± 0.11,198 ± 49.3,1.06 ± 0.49,1.32 ± 0.63,3.59 ± 0.69,0.63 ± 0.10,0.94 ± 0.18,3.27 ± 1.02,6.74 ± 10.7,7.08 ± 5.08,0.31 ± 0.08,2.18 ± 0.65,1.02 ± 0.13,1.57 ± 0.32,O=C([O-])CN1CCN(CC(=O)[O-])CCN(CC(=O)NCC2CCC(C(=O)NC(Cc3ccc4ccc5cccc6ccc3c4c56)C(=O)NCCCCC(NC(=O)NC(CCC(=O)O)C(=O)O)C(=O)O)CC2)CCN(CC(=O)[O-])CC1.[68Ga+3] (stereo not drawn) [^68Ga-HTK03029],Tumor uptake [1]: 13.9 ± 6.58 % ID/g; Tumor:Blood ratio [1]: 3.39 ± 1.01; Tumor:Muscle ratio [1]: 21.3 ± 7.50; Tumor:kidney ratio [1]: 0.07 ± 0.02; Urine uptake [1]: 175 ± 178 % ID/g; excretion pathway [2]: excreted mainly via the renal pathway; tumor uptake (qualitative comparison) [2]: comparable
